# Measured values: PubChem BioAssay (NCI)
#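 Method: 48-hour compound exposure of cells in 96-well plates, five concentrations, linear interpolation of endpoints. At the TGI there is no net growth.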
# Tests used:
# Assay in all cases: NCI anticancer screen, dose series, 48 h
# OVCAR-8 ovarian = test system: OVCAR-8 ovarian
# EKVX NSCLC = test system: EKVX NSCLC
# HCT-15 colon = test system: HCT-15 colon
# HS 578T breast = test system: HS 578T breast
# UO-31 renal = test system: UO-31 renal
# K-562 leukemia = test system: K-562 leukemia
# RXF 393 renal = test system: RXF 393 renal
# SN12C renal = test system: SN12C renal
# OVCAR-4 ovarian = test system: OVCAR-4 ovarian
# HT29 colon = test system: HT29 colon
# SNB-75 CNS = test system: SNB-75 CNS
# MDA-MB-435 = test system: MDA-MB-435
# SK-MEL-28 melanoma = test system: SK-MEL-28 melanoma
# A498 renal = test system: A498 renal
# 786-0 renal = test system: 786-0 renal
# SR leukemia = test system: SR leukemia
# NCI-H23 lung = test system: NCI-H23 lung
# SF-268 CNS = test system: SF-268 CNS
# MCF7 breast = test system: MCF7 breast
# RPMI-8226 leukemia = test system: RPMI-8226 leukemia
# HOP-62 NSCLC = test system: HOP-62 NSCLC
# PC-3 prostate = test system: PC-3 prostate
# UACC-257 melanoma = test system: UACC-257 melanoma
# HCT-116 colon = test system: HCT-116 colon
# COLO 205 colon = test system: COLO 205 colon
# U251 CNS = test system: U251 CNS
# SK-OV-3 ovarian = test system: SK-OV-3 ovarian
# CAKI-1 renal = test system: CAKI-1 renal
# NCI-H460 lung = test system: NCI-H460 lung
# SK-MEL-2 melanoma = test system: SK-MEL-2 melanoma
# LOX IMVI melanoma = test system: LOX IMVI melanoma
# SNB-19 CNS = test system: SNB-19 CNS
# SW-620 colon = test system: SW-620 colon
# MDA-N = test system: MDA-N
# A549 NSCLC = test system: A549 NSCLC
# M14 melanoma = test system: M14 melanoma
# MDA-MB-231 breast = test system: MDA-MB-231 breast
# T-47D breast = test system: T-47D breast
# HOP-92 NSCLC = test system: HOP-92 NSCLC
# KM12 colon = test system: KM12 colon
# NCI/ADR-RES ovarian = test system: NCI/ADR-RES ovarian
# CCRF-CEM leukemia = test system: CCRF-CEM leukemia
# UACC-62 melanoma = test system: UACC-62 melanoma
# NCI-H226 lung = test system: NCI-H226 lung
# SF-295 CNS = test system: SF-295 CNS
# OVCAR-3 ovarian = test system: OVCAR-3 ovarian
# HCC-2998 colon = test system: HCC-2998 colon
# DU-145 prostate = test system: DU-145 prostate
# OVCAR-5 ovarian = test system: OVCAR-5 ovarian
# ACHN renal = test system: ACHN renal
# SK-MEL-5 melanoma = test system: SK-MEL-5 melanoma
# IGROV1 ovarian = test system: IGROV1 ovarian
# BT-549 breast = test system: BT-549 breast
# MOLT-4 leukemia = test system: MOLT-4 leukemia
# HL-60(TB) leukemia = test system: HL-60(TB) leukemia
# MALME-3M melanoma = test system: MALME-3M melanoma
# SF-539 CNS = test system: SF-539 CNS
# NCI-H522 lung = test system: NCI-H522 lung
# TK-10 renal = test system: TK-10 renal
smiles,measurement,setting,value
C=CC(C)(C)C(=C)C(=O)Nc1ccccc1I,TGI,OVCAR-8 ovarian,> 100 µM
same,TGI,EKVX NSCLC,> 100 µM
same,TGI,HCT-15 colon,> 100 µM
same,TGI,HS 578T breast,> 100 µM
same,TGI,UO-31 renal,> 100 µM
same,TGI,K-562 leukemia,> 100 µM
same,TGI,RXF 393 renal,> 100 µM
same,TGI,SN12C renal,> 100 µM
same,TGI,OVCAR-4 ovarian,> 100 µM
same,TGI,HT29 colon,> 100 µM
same,TGI,SNB-75 CNS,> 100 µM
same,TGI,MDA-MB-435,> 100 µM
same,TGI,SK-MEL-28 melanoma,> 100 µM
same,TGI,A498 renal,> 100 µM
same,TGI,786-0 renal,> 100 µM
same,TGI,SR leukemia,> 100 µM
same,TGI,NCI-H23 lung,> 100 µM
same,TGI,SF-268 CNS,> 100 µM
same,TGI,MCF7 breast,> 100 µM
same,TGI,RPMI-8226 leukemia,> 100 µM
same,TGI,HOP-62 NSCLC,> 100 µM
same,TGI,PC-3 prostate,> 100 µM
same,TGI,UACC-257 melanoma,> 100 µM
same,TGI,HCT-116 colon,> 100 µM
same,TGI,COLO 205 colon,> 100 µM
same,TGI,U251 CNS,> 100 µM
same,TGI,SK-OV-3 ovarian,> 100 µM
same,TGI,CAKI-1 renal,> 100 µM
same,TGI,NCI-H460 lung,> 100 µM
same,TGI,SK-MEL-2 melanoma,> 100 µM
same,TGI,LOX IMVI melanoma,> 100 µM
same,TGI,SNB-19 CNS,> 100 µM
same,TGI,SW-620 colon,> 100 µM
same,TGI,MDA-N,> 100 µM
same,TGI,A549 NSCLC,> 100 µM
same,TGI,M14 melanoma,> 100 µM
same,TGI,MDA-MB-231 breast,> 100 µM
same,TGI,T-47D breast,> 100 µM
same,TGI,HOP-92 NSCLC,> 100 µM
same,TGI,KM12 colon,> 100 µM
same,TGI,NCI/ADR-RES ovarian,> 100 µM
same,TGI,CCRF-CEM leukemia,> 100 µM
same,TGI,UACC-62 melanoma,> 100 µM
same,TGI,NCI-H226 lung,> 100 µM
same,TGI,SF-295 CNS,> 100 µM
same,TGI,OVCAR-3 ovarian,> 100 µM
same,TGI,HCC-2998 colon,> 100 µM
same,TGI,DU-145 prostate,> 100 µM
same,TGI,OVCAR-5 ovarian,> 100 µM
same,TGI,ACHN renal,> 100 µM
same,TGI,SK-MEL-5 melanoma,> 100 µM
O=[N+]([O-])c1cccc2nccc(NCCCO)c12,TGI,OVCAR-8 ovarian,37.3 µM
same,TGI,IGROV1 ovarian,27.5 µM
same,TGI,EKVX NSCLC,23.2 µM
same,TGI,HCT-15 colon,21.2 µM
same,TGI,HS 578T breast,43.3 µM
same,TGI,UO-31 renal,35.3 µM
same,TGI,K-562 leukemia,49.3 µM
same,TGI,RXF 393 renal,21.5 µM
same,TGI,SN12C renal,28 µM
same,TGI,OVCAR-4 ovarian,23.8 µM
same,TGI,BT-549 breast,21.6 µM
same,TGI,HT29 colon,74.1 µM
same,TGI,MOLT-4 leukemia,45.1 µM
same,TGI,SNB-75 CNS,62.6 µM
same,TGI,MDA-MB-435,26.9 µM
same,TGI,SK-MEL-28 melanoma,26.5 µM
same,TGI,A498 renal,23.6 µM
same,TGI,786-0 renal,37 µM
same,TGI,SR leukemia,44.2 µM
same,TGI,NCI-H23 lung,27.1 µM
same,TGI,SF-268 CNS,28.6 µM
same,TGI,MCF7 breast,27.9 µM
same,TGI,RPMI-8226 leukemia,46.6 µM
same,TGI,HOP-62 NSCLC,35.4 µM
same,TGI,PC-3 prostate,69.8 µM
same,TGI,UACC-257 melanoma,23.6 µM
same,TGI,HCT-116 colon,> 100 µM
same,TGI,COLO 205 colon,15.8 µM
same,TGI,U251 CNS,31.3 µM
same,TGI,SK-OV-3 ovarian,61 µM
same,TGI,HL-60(TB) leukemia,36.8 µM
same,TGI,MALME-3M melanoma,22.1 µM
same,TGI,CAKI-1 renal,35.4 µM
same,TGI,NCI-H460 lung,24.4 µM
same,TGI,SK-MEL-2 melanoma,20.9 µM
same,TGI,LOX IMVI melanoma,31.7 µM
same,TGI,SNB-19 CNS,69.5 µM
same,TGI,SW-620 colon,27.6 µM
same,TGI,MDA-N,22.2 µM
same,TGI,A549 NSCLC,49 µM
same,TGI,M14 melanoma,25.6 µM
same,TGI,MDA-MB-231 breast,41.4 µM
same,TGI,T-47D breast,79.7 µM
same,TGI,KM12 colon,24.6 µM
same,TGI,CCRF-CEM leukemia,57.5 µM
same,TGI,UACC-62 melanoma,23.3 µM
same,TGI,SF-539 CNS,29.4 µM
same,TGI,NCI-H522 lung,20 µM
same,TGI,NCI-H226 lung,50.6 µM
same,TGI,SF-295 CNS,32 µM
same,TGI,TK-10 renal,52.3 µM
same,TGI,OVCAR-3 ovarian,35.3 µM
same,TGI,HCC-2998 colon,26 µM
same,TGI,DU-145 prostate,35.3 µM
same,TGI,OVCAR-5 ovarian,35.6 µM
same,TGI,ACHN renal,53.5 µM
same,TGI,SK-MEL-5 melanoma,14.4 µM
[N-]=[N+]=C(C(=O)N1CCCC1=O)S(=O)(=O)c1ccccc1,TGI,OVCAR-8 ovarian,> 100 µM
same,TGI,IGROV1 ovarian,> 100 µM
same,TGI,EKVX NSCLC,> 100 µM
same,TGI,HCT-15 colon,> 100 µM
same,TGI,HS 578T breast,> 100 µM
same,TGI,UO-31 renal,> 100 µM
same,TGI,K-562 leukemia,> 100 µM
same,TGI,RXF 393 renal,> 100 µM
same,TGI,SN12C renal,> 100 µM
same,TGI,BT-549 breast,> 100 µM
same,TGI,MOLT-4 leukemia,> 100 µM
same,TGI,SNB-75 CNS,> 100 µM
same,TGI,MDA-MB-435,> 100 µM
same,TGI,SK-MEL-28 melanoma,> 100 µM
same,TGI,786-0 renal,> 100 µM
same,TGI,SR leukemia,> 100 µM
same,TGI,NCI-H23 lung,> 100 µM
same,TGI,SF-268 CNS,> 100 µM
same,TGI,MCF7 breast,> 100 µM
same,TGI,RPMI-8226 leukemia,> 100 µM
same,TGI,HOP-62 NSCLC,> 100 µM
same,TGI,PC-3 prostate,> 100 µM
same,TGI,UACC-257 melanoma,> 100 µM
same,TGI,HCT-116 colon,> 100 µM
same,TGI,COLO 205 colon,> 100 µM
same,TGI,U251 CNS,> 100 µM
same,TGI,HL-60(TB) leukemia,> 100 µM
same,TGI,MALME-3M melanoma,> 100 µM
same,TGI,NCI-H460 lung,> 100 µM
same,TGI,SK-MEL-2 melanoma,> 100 µM
same,TGI,LOX IMVI melanoma,> 100 µM
same,TGI,SNB-19 CNS,> 100 µM
same,TGI,SW-620 colon,> 100 µM
same,TGI,MDA-N,> 100 µM
same,TGI,A549 NSCLC,> 100 µM
same,TGI,M14 melanoma,> 100 µM
same,TGI,MDA-MB-231 breast,> 100 µM
same,TGI,KM12 colon,> 100 µM
same,TGI,NCI/ADR-RES ovarian,> 100 µM
same,TGI,CCRF-CEM leukemia,> 100 µM
same,TGI,UACC-62 melanoma,> 100 µM
same,TGI,SF-539 CNS,> 100 µM
same,TGI,NCI-H522 lung,> 100 µM
same,TGI,SF-295 CNS,> 100 µM
same,TGI,TK-10 renal,> 100 µM
same,TGI,OVCAR-3 ovarian,> 100 µM
same,TGI,HCC-2998 colon,> 100 µM
same,TGI,DU-145 prostate,> 100 µM
same,TGI,ACHN renal,> 100 µM
same,TGI,SK-MEL-5 melanoma,> 100 µM
